{"source": "patent US11220552B2", "about": "“Anti-CD20 combinations for treating tumors” (BIRDIE BIOPHARMACEUTICALS, INC., priority 2016, dated 2022)", "origin": "cited, not measured here", "key": {"[1]": {"test_system": "rituximab-sensitive and resistant cells"}, "[2]": {"test_system": "lymphoid malignancies"}, "[3]": {"molecular_target": "T1, CD20 (Homo sapiens, UniProt P11836)", "T1 sequence (P11836 1-297)": "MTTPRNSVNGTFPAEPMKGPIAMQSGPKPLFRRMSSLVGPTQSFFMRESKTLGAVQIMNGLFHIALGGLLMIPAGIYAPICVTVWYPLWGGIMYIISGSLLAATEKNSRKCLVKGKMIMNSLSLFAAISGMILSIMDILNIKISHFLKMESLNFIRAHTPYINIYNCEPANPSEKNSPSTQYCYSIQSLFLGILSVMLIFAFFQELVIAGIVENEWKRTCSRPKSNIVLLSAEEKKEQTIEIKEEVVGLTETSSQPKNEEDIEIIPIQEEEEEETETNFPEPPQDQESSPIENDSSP", "conditions": "Asp101 instead of Asn101 in CDR3 of variable heavy chain, versus rituximab CDRs"}, "[4]": {"test_system": "three human lymphoma cell lines"}}}
{"substance": "GA101: fully humanized, type II, glycoengineered IgG1 anti-CD20 mAb (Glycart/Roche)", "values": [{"measurement": "activity in rituximab-resistant cell lines", "setting": "[1]; rituximab-resistant cell lines", "result": "activity"}]}
{"substance": "Ocrelizumab: type I second generation humanized anti-CD20 mAb (Genentech/Roche/Biogen)", "values": [{"measurement": "ADCC activity compared with rituximab", "setting": "[2]", "result": "increased"}, {"measurement": "CDC activity compared with rituximab", "setting": "[2]", "result": "lower"}]}
{"substance": "Ofatumumab: fully human type I anti-CD20 IgG1kappa mAb (Genmab)", "values": [{"measurement": "potency compared with rituximab", "setting": "[1]; both rituximab-sensitive and resistant cells", "result": "more potent than rituximab"}]}
{"substance": "Veltuzumab: humanized, type I anti-CD20 IgG1 mAb with CDRs identical to rituximab except Asp101 instead of Asn101", "values": [{"measurement": "off-rates", "setting": "[3]", "result": "significantly slower"}, {"measurement": "CDC cytotoxicity", "setting": "[4]", "result": "increased"}]}
